Reference: patent US7534809B2, “Phospho-indoles as HIV inhibitors” (priority 2004, dated 2009)
In brackets after ≈: the same amount, converted by molar mass. Read-outs that look alike come from different tables or passages of the source. Marks after values point to notes of the source that are not given here.

Columns and labels:
[1] = test system: mutant forms such as K103N/M184V/NAMS and K103N/Y181C/M184V/NAMS; assay: MDRC4 and CNDO cell-based assays versus other mutant forms; parameters: species or system HIV; conditions: Human immunodeficiency virus 1, read-out: EC50 values
[2] = Human plasma protein binding, equilibrium dialysis; format: in vitro ADME; conditions: pooled human plasma, 37° C., about 6 hours, 1 μM drug, read-out: Protein binding (human plasma) % Free
Description: The human plasma protein binding was determined using the Equilibrium Dialysis method. Dialysis was conducted with pooled human plasma at 37° C. for approximately 6 hours at a drug concentration of 1 μM. At the end of the dialysis, buffer samples from the buffer-side of the dialysis cell were collected and analyzed by LC/MS/MS for free drug concentration. For NNRTIs, a lower protein binding is more desirable.

[3] = PK and oral bioavailability in the rat; format: in vivo, Sprague-Dawley rats; conditions: for half-life: PEG400, read-out: T½ (converted); for Vd: PEG400, read-out: Vss
Description: (§1) The pharmacokinetics of a test compound was evaluated in Sprague-Dawley rats and Beagle dogs. A typical PK study involved dosing of 2 to 3 animals via a single IV bolus injection at 1 mg/kg and another 3 animals via a single oral gavage at 5 mg/kg. Blood samples were collected at various time points over a 24-hr period. Plasma was separated and analyzed for test compound and its metabolite(s) by LC/MS/MS. PK parameters were calculated from the plasma concentration—time profile using a noncompartmental method. Oral bioavailability (F) was calculated based on dose-normalized AUC values from oral and IV administration. Higher oral bioavailability values are better.

[4] = PK and oral bioavailability in the dog; format: in vivo, Beagle dogs; conditions: for AUC(0-inf) / AUC(0-t) / Cmax / half-life / Vd / Tmax: Beagle, plasma; for Vd: PEG400, read-out: Vss
Description: as §1

[5] = Metabolic stability in rat liver microsomes; format: in vitro ADME; conditions: 10 μM, 1 mg/mL microsomes, 37° C.
From the text: (§2) The metabolic stability assay is to evaluate the stability of test compound in biological matrices. Data are useful in terms of understanding and predicting the elimination mechanisms of the test compound. CYP450-dependent metabolism of drugs can also vary widely from one species to another. Evaluating in vitro metabolism of a drug by liver microsomes from multiple species allows the comparison of metabolism in animal species to that of humans. This can help identify the most relevant animal model for PK and toxicology studies. The metabolic stability of a test compound was evaluated in vitro in liver microsomes of the rat, dog, monkey, and human. 10 μM of the test compound was pre-incubated for 5 min at 37° C. with 1 mg/mL liver microsomes in 0.1M Tris buffer, pH 7.4 containing 5 mM MgCl2 and 0.1 mM EDTA. Following pre-incubation, NADPH (final concentration of 3 mM) was added to start the reaction and samples incubated for 0 and 1 or 2 hours. After terminating the reaction, the supernatant was analyzed by HPLC-UV or LC/MS/MS for the disappearance of the parent and formation of metabolite(s). The %parent remaining was the peak area ratio of the 1 or 2 hr sample to the time 0 sample. In general, less metabolism (higher % parent values) is more desirable.

CYP2D6 = molecular target: T1, CYP2D6 (Homo sapiens, UniProt P10635); assay: CYP450 inhibition, CYP2D6/AMMC screening kit; format: in vitro ADME
T1 construct: purchased BD Biosciences
T1 sequence (P10635 whole entry): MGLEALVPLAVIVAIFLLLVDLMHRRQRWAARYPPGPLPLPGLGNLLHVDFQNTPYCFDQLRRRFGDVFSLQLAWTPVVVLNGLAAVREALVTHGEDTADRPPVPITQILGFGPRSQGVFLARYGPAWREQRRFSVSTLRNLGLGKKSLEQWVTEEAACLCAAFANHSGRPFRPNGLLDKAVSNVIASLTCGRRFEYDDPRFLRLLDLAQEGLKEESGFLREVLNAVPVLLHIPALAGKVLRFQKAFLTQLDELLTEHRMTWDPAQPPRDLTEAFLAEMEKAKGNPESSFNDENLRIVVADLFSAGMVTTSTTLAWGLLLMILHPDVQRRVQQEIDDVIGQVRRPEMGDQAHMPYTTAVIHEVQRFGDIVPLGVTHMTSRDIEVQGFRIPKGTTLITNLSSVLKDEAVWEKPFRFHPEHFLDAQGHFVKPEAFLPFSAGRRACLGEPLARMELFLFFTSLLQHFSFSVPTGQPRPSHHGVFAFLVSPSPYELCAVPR
From the text: (§3) In vitro CYP450 inhibition screening allows for the prediction of potential drug-drug interactions. […] Potency and rank order of the inhibition can be assessed by determination of the IC50 values for a particular isozyme.
(§4) CYP3A4 inhibition was screened using the CYP3A4/BFC high throughput inhibitor screening kit (BD Biosciences), CYP2D6 inhibition was screened using the CYP2D6/AMMC high throughput inhibitor screening kit (BD Biosciences), and CYP2C9 inhibition was screened using the P450-Glo™ Assay kit (Promega).

[6] = Metabolic stability in monkey liver microsomes; format: in vitro ADME; conditions: 10 μM, 1 mg/mL microsomes, 37° C.
From the text: as §2

CYP3A4 = molecular target: T2, CYP3A4 (Homo sapiens, UniProt P08684); assay: CYP450 inhibition, CYP3A4/BFC screening kit; format: in vitro ADME
T2 construct: purchased BD Biosciences
T2 sequence (P08684 whole entry): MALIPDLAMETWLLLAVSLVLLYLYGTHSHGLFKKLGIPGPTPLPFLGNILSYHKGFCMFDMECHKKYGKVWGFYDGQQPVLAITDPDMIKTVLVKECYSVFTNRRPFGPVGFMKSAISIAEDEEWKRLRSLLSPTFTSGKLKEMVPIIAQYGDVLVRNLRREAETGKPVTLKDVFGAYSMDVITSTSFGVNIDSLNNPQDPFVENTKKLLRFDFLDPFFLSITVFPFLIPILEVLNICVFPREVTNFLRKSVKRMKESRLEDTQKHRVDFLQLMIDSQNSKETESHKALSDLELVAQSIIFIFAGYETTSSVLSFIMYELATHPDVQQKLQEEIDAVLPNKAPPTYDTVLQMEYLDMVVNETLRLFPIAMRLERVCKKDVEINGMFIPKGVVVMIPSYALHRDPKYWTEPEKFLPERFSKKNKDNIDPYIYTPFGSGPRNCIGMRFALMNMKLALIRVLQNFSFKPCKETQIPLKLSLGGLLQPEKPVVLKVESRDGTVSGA
From the text: as §3, §4

[7] = Metabolic stability in dog liver microsomes; format: in vitro ADME; conditions: 10 μM, 1 mg/mL microsomes, 37° C.
From the text: as §2

[8] = Metabolic stability in human liver microsomes; format: in vitro ADME; conditions: 10 μM, 1 mg/mL microsomes, 37° C.
From the text: as §2

[9] = pH dependent aqueous solubility, shake-flask method; format: physicochemical; conditions: aqueous solution, thermodynamic from solid, saturated concentration 1 mM
Description: The aqueous solubility of each compound was determined by the conventional shake-flask method at a saturated concentration of 1 mM. The flask (vial) was shaken for 3 hrs at ambient temperature, and then centrifuged. The supernatant was analyzed by HPLC with UV detection for solubility determination. In general, a higher aqueous solubility is more desirable for drug candidates.

CYP2C9 = molecular target: T3, CYP2C9 (Homo sapiens, UniProt P11712); assay: CYP450 inhibition, CYP2C9 P450-Glo assay kit; format: in vitro ADME
T3 construct: purchased Promega
T3 sequence (P11712 whole entry): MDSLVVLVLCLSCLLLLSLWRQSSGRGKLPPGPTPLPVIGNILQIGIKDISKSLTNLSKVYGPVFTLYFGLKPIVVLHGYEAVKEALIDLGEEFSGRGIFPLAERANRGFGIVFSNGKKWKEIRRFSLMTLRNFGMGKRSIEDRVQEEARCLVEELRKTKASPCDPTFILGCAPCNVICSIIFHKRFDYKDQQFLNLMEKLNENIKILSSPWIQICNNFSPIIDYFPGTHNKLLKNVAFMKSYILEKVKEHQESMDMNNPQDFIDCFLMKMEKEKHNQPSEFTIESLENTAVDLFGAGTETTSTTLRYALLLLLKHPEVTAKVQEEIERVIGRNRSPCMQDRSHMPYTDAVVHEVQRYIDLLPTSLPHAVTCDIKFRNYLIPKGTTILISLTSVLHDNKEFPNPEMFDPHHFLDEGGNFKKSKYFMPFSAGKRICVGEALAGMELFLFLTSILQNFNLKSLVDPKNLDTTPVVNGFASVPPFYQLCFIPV
From the text: as §3, §4

[10] = In vitro metabolism in liver microsomes, metabolic pathway; format: in vitro ADME, rat, dog, monkey, and human; conditions: LC/MS/MS metabolite profiling
Description: Phase I biotransformation of a test compound is evaluated in this assay. Samples from the metabolic stability experiment were analyzed by LC/MS/MS for metabolite profiling and identification. Structures of metabolites were elucidated based on multiple MS/MS experiments such as full scan, neutral loss scan, and product ion scan. Metabolic pathways were then postulated based on the structures of major metabolites. For compounds from the phosphinate series, N-oxidation of the terminal pyridine ring is the predominant pathway, followed by the oxidation of the dimethyl-phenyl group, where the methyl group(s) is hydroxylated, further oxidized to an aldehyde, and finally to a carboxylic acid. The elucidation of metabolic pathways is important in terms of understanding the elimination mechanism of a test compound and assisting the design of new molecules with improved DM-PK profiles.

[11] = Sprague-Dawley, plasma, IV, 1.0 mg/kg, PEG400
[12] = Sprague-Dawley, plasma, IV, 1.0 mg/kg
[13] = IV, 1.0 mg/kg, PEG400, read-out: T½ (converted)
[14] = PO, 5.0 mg/kg, PEG400, oral bioavailability
[15] = pH 1, simulated gastric fluid, pH1, ambient temperature, read-out: Aqueous solubility pH1
[16] = pH 3, aqueous buffer, pH3, ambient temperature, read-out: Aqueous solubility pH3
[17] = pH 7, aqueous buffer, pH7, ambient temperature, read-out: Aqueous solubility pH7
[18] = pH 9, aqueous buffer, pH9, ambient temperature, read-out: Aqueous solubility pH9
[19] = Sprague-Dawley, plasma, PO, 5.0 mg/kg, PEG400

Compound: CCOC(=O)c1c(P(=O)(OCC)c2ccccc2)c2cc(Cl)ccc2n1S(=O)(=O)c1ccccc1 (centres unmarked) [Example 3, Ethyl 5-chloro-3-[ethoxy(phenyl)phosphoryl]-1-(phenylsulfonyl)-1H-indole-2-carboxylate]
- EC50 [1]: 1.3 to 447 nM

Compound: COP(=O)(C1=C(C(=O)NCc2ccncc2)N=C2C=CC(Cl)=CC21)c1cc(C)cc(C)c1 (centres unmarked) [Compound N]
- fraction unbound at 6 h, 1 μM [2]: 0.002
- AUCinf/Dose ([3]; IV, 1.0 mg/kg, PEG400): 125.9
- CI ([3]; IV, 1.0 mg/kg, PEG400): 133.2 mL/min/kg
- AUC(0-inf) [3, 11]: 126 ng·h/mL
- AUC(0-t) [3, 11]: 108 ng·h/mL
- Cmax [3, 11]: 119 ng/mL
- half-life [3, 12]: 0.9 h
- Vd [3, 12]: 9.59 L/kg
- AUC(0-inf) ([4]; IV, 1.0 mg/kg, PEG400): 970 ng·h/mL
- AUC(0-t) ([4]; IV, 1.0 mg/kg, PEG400): 924 ng·h/mL
- Cmax ([4]; IV, 1.0 mg/kg, PEG400): 407 ng/mL
- half-life [4, 13]: 4.2 h
- Vd ([4]; IV, 1.0 mg/kg): 4.08 L/kg
- AUC(0-inf) ([4]; PO, 5.0 mg/kg, PEG400): 139 ng·h/mL
- AUC(0-t) ([4]; PO, 5.0 mg/kg, PEG400): 116 ng·h/mL
- Cmax ([4]; PO, 5.0 mg/kg, PEG400): 60.9 ng/mL
- Tmax ([4]; PO, 5.0 mg/kg, PEG400): 0.7 h
- half-life ([4]; PO, 5.0 mg/kg, PEG400, read-out: T½ (converted)): 2.8 h
- AUCinf/Dose ([4]; IV, 1.0 mg/kg, PEG400): 970.1
- CI ([4]; IV, 1.0 mg/kg, PEG400): 19.872 mL/min/kg
- AUCinf/Dose ([4]; PO, 5.0 mg/kg, PEG400): 27.7
- F [4, 14]: 2.9%
- Metabolic stability in liver microsomes % Parent after 1 hr incubation, Rat ([5]; 1 hr (footnote *)): 1%*
- IC50 (CYP2D6): 2040 nM
- Metabolic stability in liver microsomes % Parent after 1 hr incubation, Monkey ([6]; 1 hr (footnote *)): 1%*
- IC50 (CYP3A4): 660 nM
- Metabolic stability in liver microsomes % Parent after 1 hr incubation, Dog ([7]; 1 hr (footnote *)): 24%*
- Metabolic stability in liver microsomes % Parent after 1 hr incubation, Human ([8]; 1 hr (footnote *)): 22%*
- solubility at 3 h [9, 15]: > 1000 µM
- solubility at 3 h [9, 16]: 231 µM (≈ 108 µg/mL)
- solubility at 3 h [9, 17]: 2.1 µM (≈ 0.983 µg/mL)
- solubility at 3 h [9, 18]: 1.7 µM (≈ 0.795 µg/mL)

Compound: COP(=O)(c1cc(C)cc(C)c1)c1c(C(=O)NCc2cc[n+]([O-])cc2)[nH]c2ccc(Cl)cc12 (centres unmarked) [Compound D]
- fraction unbound at 6 h, 1 μM [2]: 0.016
- IC50 (CYP2C9): > 10000 nM
- AUCinf/Dose ([3]; IV, 1.0 mg/kg, PEG400): 188.3
- CI ([3]; IV, 1.0 mg/kg, PEG400): 90.297 mL/min/kg
- AUCinf/Dose ([3]; PO, 5.0 mg/kg, PEG400): 30.2
- F [3, 14]: 16.0%
- AUC(0-inf) [3, 11]: 188 ng·h/mL
- AUC(0-t) [3, 11]: 174 ng·h/mL
- Cmax [3, 11]: 166 ng/mL
- half-life [3, 12]: 0.9 h
- Vd [3, 12]: 6.37 L/kg
- AUC(0-inf) [3, 19]: 151 ng·h/mL
- AUC(0-t) [3, 19]: 132 ng·h/mL
- Cmax [3, 19]: 45 ng/mL
- Tmax [3, 19]: 0.5 h
- half-life ([3]; Sprague-Dawley, plasma, PO, 5.0 mg/kg): 2.2 h
- Metabolic pathway (in vitro) [10]: Hydroxylation to CH3OH— to CHO— to COOH—
- AUC(0-inf) ([4]; IV, 1.0 mg/kg, PEG400): 1220 ng·h/mL
- AUC(0-t) ([4]; IV, 1.0 mg/kg, PEG400): 1010 ng·h/mL
- Cmax ([4]; IV, 1.0 mg/kg, PEG400): 430 ng/mL
- half-life [4, 13]: 3.2 h
- Vd ([4]; IV, 1.0 mg/kg): 3.72 L/kg
- AUC(0-inf) ([4]; PO, 5.0 mg/kg, 0.5% MC): 747 ng·h/mL
- AUC(0-t) ([4]; PO, 5.0 mg/kg, 0.5% MC): 696 ng·h/mL
- Cmax ([4]; PO, 5.0 mg/kg, 0.5% MC): 116 ng/mL
- Tmax ([4]; PO, 5.0 mg/kg, 0.5% MC): 2.7 h
- half-life ([4]; PO, 5.0 mg/kg, 0.5% MC, read-out: T½ (converted)): 2.6 h
- AUCinf/Dose ([4]; IV, 1.0 mg/kg, PEG400): 1220.5
- CI ([4]; IV, 1.0 mg/kg, PEG400): 13.7 mL/min/kg
- AUCinf/Dose ([4]; PO, 5.0 mg/kg, 0.5% MC): 149.3
- F ([4]; PO, 5.0 mg/kg, 0.5% MC, oral bioavailability): 12.4%
- Metabolic stability in liver microsomes % Parent after 2 hrs, Rat ([5]; 2 hrs): 1%
- IC50 (CYP2D6): > 10000 nM
- Metabolic stability in liver microsomes % Parent after 2 hrs, Monkey ([6]; 2 hrs): 24%
- IC50 (CYP3A4): 1070 nM
- Metabolic stability in liver microsomes % Parent after 2 hrs, Dog ([7]; 2 hrs): 82%
- Metabolic stability in liver microsomes % Parent after 2 hrs, Human ([8]; 2 hrs): 76%
- solubility at 3 h [9, 15]: 52 µM (≈ 25.2 µg/mL)
- solubility at 3 h [9, 16]: 74.2 µM (≈ 35.9 µg/mL)
- solubility at 3 h [9, 17]: 50.6 µM (≈ 24.5 µg/mL)
- solubility at 3 h [9, 18]: 66.8 µM (≈ 32.3 µg/mL)
